# Results from article PMC9646841, “A bead-based GPCR phosphorylation immunoassay for high-throughput ligand profiling and GRK inhibitor screening” (Communications Biology, 2022).
# Where “and” joins values, the source holds several entries; their conditions need not be identical. Identical values can stand only once. Square brackets hold non-standard residues; d marks the D form. Peptide text beside a SMILES is read from it. Cha = N[C@@H](CC1CCCCC1)C(=O)O; dCha = N[C@H](CC1CCCCC1)C(=O)O
# Legend:
# Assay type in all cases: cell-based
# [1] = target: T1, C5a1 (Homo sapiens, UniProt P21730); test: pS338/pT339-C5a1 7TM phosphorylation assay; conditions: for Emax: read-out: Emax (% Control C028) pS338/pT339-C5a1
# T1 construct: host or cells: Control-HEK293, ΔGRK2/3-HEK293, ΔGRK5/6-HEK293, stably expressing
# T1 sequence (P21730 1-350): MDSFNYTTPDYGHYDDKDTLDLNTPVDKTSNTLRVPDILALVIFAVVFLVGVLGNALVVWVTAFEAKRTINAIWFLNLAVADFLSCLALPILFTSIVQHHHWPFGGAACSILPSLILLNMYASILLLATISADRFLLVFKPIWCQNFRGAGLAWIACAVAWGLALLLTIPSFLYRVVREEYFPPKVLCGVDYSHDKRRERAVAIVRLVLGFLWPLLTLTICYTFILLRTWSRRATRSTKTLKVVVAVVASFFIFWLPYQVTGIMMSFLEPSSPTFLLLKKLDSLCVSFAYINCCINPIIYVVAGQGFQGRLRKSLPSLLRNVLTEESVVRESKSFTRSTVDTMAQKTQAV
# [2] = target: T1, C5a1; test: pT324/pS327-C5a1 7TM phosphorylation assay; conditions: for Emax: read-out: Emax (% Control C028) pT324/pS327-C5a1
# [3] = target: T1, C5a1; test: pS332/pS334-C5a1 7TM phosphorylation assay
# [4] = C028 0.01 µM, Control-C5aR1-HEK293
# [5] = C028 0.01 µM, ΔGRK2/3-C5aR1-HEK293
# [6] = C028 0.01 µM, ΔGRK5/6-C5aR1-HEK293
# [7] = C028 0.1 µM, ΔGRK5/6-C5aR1-HEK293
# [8] = C028 3 µM, Control-C5aR1-HEK293
# [9] = C028 10 µM, ΔGRK5/6-C5aR1-HEK293, concentration series
# [10] = Control-C5aR1-HEK293, C028 3 µM
# [11] = Control-C5aR1-HEK293, C028 10 µM (concentration series)
# [12] = ΔGRK2/3-C5aR1-HEK293, C028 0.01 µM
# [13] = ΔGRK2/3-C5aR1-HEK293, C028 0.3 µM
# [14] = ΔGRK2/3-C5aR1-HEK293, C028 10 µM (concentration series)
# [15] = ΔGRK5/6-C5aR1-HEK293, C028 0.01 µM
# [16] = ΔGRK5/6-C5aR1-HEK293, C028 0.1 µM
smiles,measurement,setting,value
"N=C(N)NCCC[C@@H](NC(=O)[C@H](CC1CCCCC1)NC(=O)[C@@H](CC1CCCCC1)NC(=O)[C@@H]1CCCN1C(=O)[C@H](CCCCN)NC(=O)[C@@H](N)Cc1ccccc1)C(=O)O [C028, FKP-(D-Cha)-Cha-r] (H-FKP[dCha][Cha][dR]-OH)",OD405 max pS338/pT339-C5a1,[1],0.97
same,OD405 min pS338/pT339-C5a1,[1],0.05
same,pS338/pS339 normalized,[1]; [4],0.99% and 0.92% and 2.21% and 3.33% and 1.14% and 2.13% and -1.29% and -0.74%
same,"pS338/pS339 signal, raw",[1]; [4],0.1155 and 0.1223 and 0.1459 and 0.1501 and 0.1235 and 0.1345 and 0.146 and 0.1476
same,pS338/pS339 normalized,[1]; [5],2.29% and 0.59% and -0.76% and -0.97% and -2.55% and -1.82% and -0.06% and 0.89%
same,"pS338/pS339 signal, raw",[1]; [5],0.0952 and 0.0932 and 0.1355 and 0.1425 and 0.1714 and 0.1765 and 0.119 and 0.1119
same,pS338/pS339 normalized,[1]; [6],-0.52% and 1.83% and 5.79% and 7.02% and 0.41% and 6.78% and -2.15% and -0.66%
same,"pS338/pS339 signal, raw",[1]; [6],0.1914 and 0.1791 and 0.1104 and 0.1268 and 0.0959 and 0.1124 and 0.1275 and 0.1571
same,"pS338/pS339 signal, raw","[1]; C028 0.1 µM, Control-C5aR1-HEK293",0.1875 and 0.2099 and 0.2083 and 0.1715 and 0.263 and 0.2723 and 0.28 and 0.2721
same,pS338/pS339 normalized,"[1]; C028 0.1 µM, ΔGRK2/3-C5aR1-HEK293",4.55% and 4.75% and 2.09% and -0.74% and 0.95% and 1.57% and 2.54% and 3.37%
same,pS338/pS339 normalized,[1]; [7],6.77% and 12.22% and 6.57% and 4.14% and 6.71% and 9.50% and 2.76% and 5.82%
same,"pS338/pS339 signal, raw",[1]; [7],0.1912 and 0.1825 and 0.1703 and 0.1709 and 0.1421 and 0.1595 and 0.2215 and 0.2673
same,pS338/pS339 normalized,[1]; [8],78.61% and 86.74% and 85.12% and 75.44% and 123.11% and 90.88% and 72.00% and 99.45%
same,"pS338/pS339 signal, raw",[1]; [8],0.8634 and 0.695 and 1.1554 and 0.7958 and 0.9051 and 1.0337 and 0.9787 and 0.9442
same,pS338/pS339 normalized,"[1]; C028 10 µM, Control-C5aR1-HEK293, concentration series",92.58% and 105.20% and 87.15% and 107.72% and 114.82% and 97.73% and 96.48% and 106.05%
same,"pS338/pS339 signal, raw","[1]; C028 10 µM, Control-C5aR1-HEK293, last 0/10 µM pair of Control block",0.8171 and 0.9223 and 0.6743 and 0.8573 and 1.0399 and 1.1081
same,"pS338/pS339 signal, raw","[1]; C028 10 µM, Control-C5aR1-HEK293 beside ΔGRK5/6 block",1.1983 and 1.0585 and 0.7547 and 0.8921 and 1.3122 and 1.2783 and 1.4177 and 1.3015
same,pS338/pS339 normalized,[1]; [9],60.81% and 85.60% and 54.29% and 47.10% and 52.27% and 73.34% and 65.73% and 72.42%
same,"pS338/pS339 signal, raw",[1]; [9],0.6953 and 0.6053 and 0.6054 and 0.6811 and 0.925 and 0.7569 and 1.0104 and 1.1456
same,Emax,[1]; Control-HEK293,100%
same,EC50,"[1]; pEC50 pS338/pT339-C5a1, Control-HEK293",0.631 µM
same,EC50,"[1]; pEC50 pS338/pT339-C5a1, ΔGRK2/3-HEK293",1 µM
same,Emax,[1]; ΔGRK2/3-HEK293,55.2%
same,Emax,[1]; ΔGRK5/6-HEK293,63.9%
same,OD405 max pT324/pS327-C5a1,[2],1.26
same,OD405 min pT324/pS327-C5a1,[2],0.01
same,"pT324/pS327 phosphorylation, normalized","[2]; Control-C5aR1-HEK293, C028 0.01 µM",6.54% and 2.09% and 2.38% and -0.26% and 4.73% and 4.23% and 0.13% and 0.29%
same,"pT324/pS327-C5aR1 Phosphorylation Assay, raw signal","[2]; Control-C5aR1-HEK293, C028 0.1 µM",0.2603 and 0.2849 and 0.4452 and 0.4009 and 0.2355 and 0.392 and 0.2309 and 0.3621
same,"pT324/pS327-C5aR1 Phosphorylation Assay, raw signal",[2]; [10],0.8349 and 0.7369 and 1.3757 and 1.2873 and 1.162 and 1.2785 and 0.8805 and 0.8562
same,"pT324/pS327 phosphorylation, normalized",[2]; [10],120.88% and 95.08% and 81.14% and 86.44% and 112.69% and 137.00% and 71.21% and 88.89%
same,"pT324/pS327 phosphorylation, normalized",[2]; [11],119.78% and 104.86% and 86.39% and 115.09% and 117.11% and 104.93% and 106.33% and 104.22%
same,Emax,[2]; Control-HEK293,100%
same,EC50,"[2]; pEC50 pT324/pS327-C5a1, Control-HEK293",0.501 µM
same,EC50,"[2]; pEC50 pT324/pS327-C5a1, ΔGRK2/3-HEK293",0.631 µM
same,"pT324/pS327-C5aR1 Phosphorylation Assay, raw signal",[2]; [12],0.1906 and 0.2011 and 0.1388 and 0.1623 and 0.1923 and 0.1741 and 0.2414 and 0.2236
same,"pT324/pS327 phosphorylation, normalized",[2]; [12],5.63% and 2.70% and -1.25% and 2.28% and 0.48% and 3.13% and 6.18% and 3.90%
same,"pT324/pS327-C5aR1 Phosphorylation Assay, raw signal","[2]; ΔGRK2/3-C5aR1-HEK293, C028 0.1 µM",0.3121 and 0.3742 and 0.1921 and 0.224 and 0.2885 and 0.3186 and 0.3064
same,"pT324/pS327-C5aR1 Phosphorylation Assay, raw signal",[2]; [13],0.5648 and 0.5979 and 0.3035 and 0.3146 and 0.4385 and 0.4523 and 0.4291 and 0.4848
same,"pT324/pS327 phosphorylation, normalized",[2]; [13],24.79% and 33.69% and 32.00% and 35.01% and 19.88% and 27.63% and 33.40% and 34.58%
same,"pT324/pS327 phosphorylation, normalized","[2]; ΔGRK2/3-C5aR1-HEK293, C028 1 µM",57.50% and 41.29% and 46.21% and 58.02% and 41.79% and 38.21% and 68.95% and 53.84%
same,"pT324/pS327-C5aR1 Phosphorylation Assay, raw signal","[2]; ΔGRK2/3-C5aR1-HEK293, C028 3 µM",0.9175 and 0.9435 and 0.5986 and 0.5479 and 0.9015 and 0.9692 and 0.812 and 0.8433
same,"pT324/pS327-C5aR1 Phosphorylation Assay, raw signal",[2]; [14],0.9308 and 0.9846 and 0.7517 and 0.6067 and 1.0697 and 0.9407 and 1.15 and 0.9163
same,"pT324/pS327 phosphorylation, normalized",[2]; [14],96.12% and 84.19% and 64.50% and 63.55% and 84.08% and 59.71% and 82.71% and 58.42%
same,Emax,[2]; ΔGRK2/3-HEK293,79.8%
same,"pT324/pS327-C5aR1 Phosphorylation Assay, raw signal",[2]; [15],0.1198 and 0.124 and 0.1546 and 0.0999 and 0.1081 and 0.164 and 0.1821
same,"pT324/pS327 phosphorylation, normalized",[2]; [15],-1.74% and -1.49% and 1.46% and 0.52% and 6.96% and 2.95% and -0.44% and 0.0738%
same,"pT324/pS327-C5aR1 Phosphorylation Assay, raw signal",[2]; [16],0.1319 and 0.1326 and 0.1302 and 0.1434 and 0.1164 and 0.1306 and 0.173 and 0.1664
same,"pT324/pS327 phosphorylation, normalized",[2]; [16],-0.96% and 0.29% and 1.64% and 0.38% and 2.18% and 3.49% and 1.29% and 7.61%
same,"pT324/pS327-C5aR1 Phosphorylation Assay, raw signal","[2]; ΔGRK5/6-C5aR1-HEK293, C028 0.3 µM",0.1652 and 0.1629 and 0.1483 and 0.1906 and 0.1747 and 0.2126 and 0.1807
same,Emax,[2]; ΔGRK5/6-HEK293,27.8%
same,OD405 max pS332/pS334-C5a1,[3],1.06
same,OD405 min pS332/pS334-C5a1,[3],0.11
same,pS332/pS334 normalized,[3]; [11],95.44% and 132.42% and 80.61% and 80.15% and 121.12% and 109.12% and 102.49% and 106.48%
same,pS332/pS334 (raw signal),"[3]; Control-C5aR1-HEK293 run beside the ΔGRK2/3 block, C028 10 µM",0.7901 and 0.7373 and 0.8202 and 0.7545 and 1.029 and 1.2201
same,Emax,"[3]; Control-HEK293, read-out: Emax (% Control C028) pS332/pS334-C5a1",100%
